Source: publication PMC8753592, “Long-acting capsid inhibitor protects macaques from repeat SHIV challenges” (Nature, 2021)
Values joined by “and” are separate entries in the source; they are usually repeats but may differ in a detail not shown here. Equal values may be shown once.

Key:
SHIV-SF162P3 = assay: Repeated escalating-dose rectal SHIV challenge study (plasma viraemia by gag RT-qPCR); type: in vivo, rhesus macaques of Indian origin
Procedure: For the challenge study, 24 outbred rhesus macaques of Indian origin were assigned to the three study groups with even sex and weight distributions. All animals were housed at Alpha Genesis (Yemassee, SC), and all procedures were conducted in compliance with all relevant local, state and federal regulations and were approved by the Alpha Genesis IACUC. […] The injection sites were monitored daily by veterinary staff for 3 days. Beginning in week 1, animals in all three groups were challenged by the intrarectal route with 1 ml of RPMI containing the specified dilution of a 3.62 × 10^3 TCID50 SHIV-SF162P3 stock. At each respective time point, the challenges were performed on the same day, using the same virus stock and inoculation method across the three groups. Whole blood was collected and processed into plasma and PBMCs as necessary to assess routine haematology, clinical chemistry, viral load and serology as well as for bioanalysis of drug levels. The animals were considered to be protected if they remained SHIV negative by plasma PCR assay and seronegative by enzyme immunoassay throughout the 15-week challenge phase and the 9-week follow-up.
RNA was extracted from rhesus macaque plasma using a QIAcube high-throughput instrument and an IndiSpin QIAcube HT Pathogen kit (Qiagen). RNA standards using the SIV gag sequence were generated by AmpliCap-Max T7 High-Yield Message Maker kit (Cell Script) and were purified using an RNA Clean and Concentrator kit (Zymo Research). Log dilutions of the RNA were included with each RT–qPCR assay. Reverse transcription of standards and samples was performed using a Superscript III VILO kit (Invitrogen). qPCR was performed using forward primer 5′-[…]-3′, reverse primer 5′-[…]-3′ and fluorescently labelled primer 5′-[…]-3′ on a Quantstudio 6 Flex system (Applied Biosystems). The assay LOD was 200 copies gag per ml.
Protection against acquired infection was analysed using Cox proportional hazard regression models based on the exact partial likelihood for discrete time expressed in weeks, which explicitly accounts for the time-varying viral challenge dose in the model. The hazard ratios with 95% confidence intervals for per-exposure relative reductions in acquisition risk were calculated for the GS-CA1-treated groups, and the results were compared with those for the vehicle-treated control group. Comparisons were considered statistically significant at a two-sided alpha level of 0.05 (P < 0.05). Statistical analyses were performed using GraphPad Prism version 8.1.2, SAS version 9.4 and R Studio software version 4.0.5.

[1] = test system: SHIV envelope (Env) glycoprotein; assay: Env (gp140) ELISA seroconversion in challenged animals; type: in vivo, rhesus macaques; details: for First viremia to seroconversion interval / Seroconversion timepoint: individual infected animals
Procedure: Rhesus serum binding antibody titres against gp140 trimers were determined by ELISA. Ninety-six-well Maxisorp ELISA plates (Thermo Fisher Scientific) were coated overnight with 100 μl per well of 1 μg ml^−1 mosaic M gp140 protein in PBS and were then blocked for 2 h with blocker casein in PBS (Thermo Scientific). Macaque sera were added in threefold serial dilutions and were incubated for 1 h at room temperature. The plates were washed three times with PBS containing 0.05% Tween-20 and were then incubated for 1 h with a 1:1,000 dilution of a horseradish peroxidase (HRP)-conjugated goat anti-human secondary antibody (Jackson ImmunoResearch Laboratories). The plates were then washed three times with the above wash buffer and were developed using SureBlue tetramethylbenzidine (TMB) microwell peroxidase (KPL). Development was stopped by the addition of a stop solution (KPL), and the plates were then analysed at 450 nm with a Versamax ELISA microplate reader (Molecular Devices) using Softmax Pro 6.5.1 software. The ELISA endpoint titres were defined as the highest reciprocal serum dilution that yielded an OD450 nm absorbance of >0.2. Seroconversion occurred when the OD450 nm absorbance was greater than or equal to three times the value obtained at week 0 and the endpoint titre was greater than the assay LOD, which was 1:25.

HIV capsid = details: ref Yant et al, Nat.Med, 2019;[4]; cited from earlier work
[2] = ref Yant et al, Nat.Med, 2019;[4], cited from earlier work

Question: What does the source list for `CC(C)(C#Cc1ccc(-c2ccc(Cl)c3c(NS(=O)(=O)C4CC4)nn(CC(F)F)c23)c([C@H](Cc2cc(F)cc(F)c2)NC(=O)Cn2nc(C(F)F)c3c2C(F)(F)[C@@H]2C[C@H]32)n1)S(C)(=O)=O` [GS-CA1]?
Answer: Plasma SHIV viral load (SHIV-SF162P3; GS-CA1 150mg/kg group, Week 24, individual animals, 150 mg/kg): 200 gag RNA copies per ml and 724 gag RNA copies per ml and 1367 gag RNA copies per ml; Plasma SHIV viral load (SHIV-SF162P3; GS-CA1 300mg/kg group, Week 1, individual animals): 200 gag RNA copies per ml; Plasma SHIV viral load (SHIV-SF162P3; GS-CA1 300mg/kg group, Week 2, individual animals): 200 gag RNA copies per ml; Plasma SHIV viral load (SHIV-SF162P3; GS-CA1 300mg/kg group, Week 3, individual animals): 200 gag RNA copies per ml; Plasma SHIV viral load (SHIV-SF162P3; GS-CA1 300mg/kg group, Week 4, individual animals): 200 gag RNA copies per ml; Plasma SHIV viral load (SHIV-SF162P3; GS-CA1 300mg/kg group, Week 5, individual animals): 200 gag RNA copies per ml; Plasma SHIV viral load (SHIV-SF162P3; GS-CA1 300mg/kg group, Week 6, individual animals): 200 gag RNA copies per ml; Plasma SHIV viral load (SHIV-SF162P3; GS-CA1 300mg/kg group, Week 7, individual animals): 200 gag RNA copies per ml; Plasma SHIV viral load (SHIV-SF162P3; GS-CA1 300mg/kg group, Week 8, individual animals): 200 gag RNA copies per ml; Plasma SHIV viral load (SHIV-SF162P3; GS-CA1 300mg/kg group, Week 9, individual animals): 200 gag RNA copies per ml; Plasma SHIV viral load (SHIV-SF162P3; GS-CA1 300mg/kg group, Week 10, individual animals): 200 gag RNA copies per ml; Plasma SHIV viral load (SHIV-SF162P3; GS-CA1 300mg/kg group, Week 11, individual animals): 200 gag RNA copies per ml; Plasma SHIV viral load (SHIV-SF162P3; GS-CA1 300mg/kg group, Week 12, individual animals): 200 gag RNA copies per ml; Plasma SHIV viral load (SHIV-SF162P3; GS-CA1 300mg/kg group, Week 13, individual animals): 200 gag RNA copies per ml; Plasma SHIV viral load (SHIV-SF162P3; GS-CA1 300mg/kg group, Week 14, individual animals): 200 gag RNA copies per ml; Plasma SHIV viral load (SHIV-SF162P3; GS-CA1 300mg/kg group, Week 15, individual animals): 200 gag RNA copies per ml; Plasma SHIV viral load (SHIV-SF162P3; GS-CA1 300mg/kg group, Week 16, individual animals): 200 gag RNA copies per ml; Plasma SHIV viral load (SHIV-SF162P3; GS-CA1 300mg/kg group, Week 17, individual animals, 300 mg/kg): 9063 gag RNA copies per ml and 13193 gag RNA copies per ml and 200 gag RNA copies per ml and 13143 gag RNA copies per ml; Plasma SHIV viral load (SHIV-SF162P3; GS-CA1 300mg/kg group, Week 18, individual animals, 300 mg/kg): 200 gag RNA copies per ml and 6116 gag RNA copies per ml and 1633235 gag RNA copies per ml; Plasma SHIV viral load (SHIV-SF162P3; GS-CA1 300mg/kg group, Week 19, individual animals, 300 mg/kg): 200 gag RNA copies per ml and 123639 gag RNA copies per ml; Plasma SHIV viral load (SHIV-SF162P3; GS-CA1 300mg/kg group, Week 20, individual animals, 300 mg/kg): 200 gag RNA copies per ml and 17958 gag RNA copies per ml; Plasma SHIV viral load (SHIV-SF162P3; GS-CA1 300mg/kg group, Week 21, individual animals, 300 mg/kg): 200 gag RNA copies per ml; Plasma SHIV viral load (SHIV-SF162P3; GS-CA1 300mg/kg group, Week 22, individual animals, 300 mg/kg): 200 gag RNA copies per ml; Plasma SHIV viral load (SHIV-SF162P3; GS-CA1 300mg/kg group, Week 23, individual animals, 300 mg/kg): 200 gag RNA copies per ml; Plasma SHIV viral load (SHIV-SF162P3; GS-CA1 300mg/kg group, Week 24, individual animals, 300 mg/kg): 200 gag RNA copies per ml; peak viral loads vs vehicle-treated control animals (SHIV-SF162P3; infected GS-CA1-treated animals): significantly lower; First viremia to seroconversion interval ([1]; 150 mg/kg): 1 weeks and 4 weeks and 5 weeks; Seroconversion timepoint ([1]; 150 mg/kg): 17 study week and 20 study week and 18 study week and 16 study week and 19 study week and 21 study week; First viremia to seroconversion interval ([1]; 300 mg/kg): 1 weeks and 3 weeks; Seroconversion timepoint ([1]; 300 mg/kg): 18 study week and 20 study week; median time to seroconversion from the onset of viraemia ([1]; all infected GS-CA1-treated animals, range 1 to 5 weeks): 4 weeks; Inhibits nuclear import (early-stage) (HIV capsid): Yes; Inhibits proper capsid assembly (late-stage) (HIV capsid): Yes; Inhibits virus production (late-stage) (HIV capsid): Yes; Kinetic solubility at pH 2.0 ([2]; pH 2.0): <1, <1 μM; Kinetic solubility at pH 7.4 ([2]; pH 7.4): <1, <1 μM
